# Values quoted from earlier work, collected in US6346634B1, “Chemical compound containing a superoxide scavenger and an organic nitrate or nitrite moiety” (Teijin Limited, priority 1999, dated 2002).
# Molecular target: XO (Homo sapiens, UniProt P47989)
# Details: inhibition of superoxide-generating NADH oxidase activity
# Sequence of XO (P47989 whole entry): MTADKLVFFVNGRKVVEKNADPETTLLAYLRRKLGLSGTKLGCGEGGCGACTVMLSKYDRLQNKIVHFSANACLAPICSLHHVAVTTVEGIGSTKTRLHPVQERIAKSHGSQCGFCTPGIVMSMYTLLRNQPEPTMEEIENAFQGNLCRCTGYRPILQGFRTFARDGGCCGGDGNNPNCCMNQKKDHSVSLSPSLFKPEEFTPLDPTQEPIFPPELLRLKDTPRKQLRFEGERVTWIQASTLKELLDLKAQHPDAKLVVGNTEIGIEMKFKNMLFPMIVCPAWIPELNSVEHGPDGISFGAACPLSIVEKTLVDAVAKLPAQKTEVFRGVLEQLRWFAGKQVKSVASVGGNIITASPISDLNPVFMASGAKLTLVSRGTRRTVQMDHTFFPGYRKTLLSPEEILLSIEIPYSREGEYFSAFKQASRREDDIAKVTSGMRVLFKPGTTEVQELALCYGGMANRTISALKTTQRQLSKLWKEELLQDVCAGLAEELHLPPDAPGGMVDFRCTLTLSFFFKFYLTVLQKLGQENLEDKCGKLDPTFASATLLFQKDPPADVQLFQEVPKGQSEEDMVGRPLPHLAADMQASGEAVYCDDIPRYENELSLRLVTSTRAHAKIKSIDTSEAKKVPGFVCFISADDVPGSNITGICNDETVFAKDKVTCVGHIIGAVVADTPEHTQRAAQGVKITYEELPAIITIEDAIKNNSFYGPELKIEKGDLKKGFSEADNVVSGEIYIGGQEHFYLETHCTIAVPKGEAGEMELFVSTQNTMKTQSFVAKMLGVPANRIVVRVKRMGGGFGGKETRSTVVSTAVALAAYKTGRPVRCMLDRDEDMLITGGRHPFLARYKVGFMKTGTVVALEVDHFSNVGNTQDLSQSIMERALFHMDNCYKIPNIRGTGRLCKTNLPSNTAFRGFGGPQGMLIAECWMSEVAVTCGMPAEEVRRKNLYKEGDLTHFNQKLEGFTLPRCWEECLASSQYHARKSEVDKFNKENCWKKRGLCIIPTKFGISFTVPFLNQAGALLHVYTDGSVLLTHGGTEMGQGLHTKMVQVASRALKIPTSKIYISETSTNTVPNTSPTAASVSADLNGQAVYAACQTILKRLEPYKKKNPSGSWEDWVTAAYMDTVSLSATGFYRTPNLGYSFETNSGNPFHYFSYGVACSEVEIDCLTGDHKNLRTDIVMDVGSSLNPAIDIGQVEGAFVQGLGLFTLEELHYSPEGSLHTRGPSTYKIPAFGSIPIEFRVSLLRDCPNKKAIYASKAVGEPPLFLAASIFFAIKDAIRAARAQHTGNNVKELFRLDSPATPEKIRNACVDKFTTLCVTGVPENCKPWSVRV
row,Compound,NADH-oxidizing activity of XO
1,Nc1c(-c2cccc(C(F)(F)F)c2)nsc1C(=O)O [Amfiutizole],not suppressible
2,COc1cc(-c2cnn3c(=O)nc[n-]c23)ccc1[S+]([O-])c1ccccc1.[Na+] (centres unmarked) [BOF-4272],not suppressible
3,Oc1ncnc2[nH]ncc12 [allopurinol],not suppressible
4,c1ccc2c(c1)[I+]c1ccccc1-2 [diphenyleneiodonium],blocked
5,O=c1[nH]c(=O)c2c[nH]nc2[nH]1 [oxypurinol],not suppressible
